Source: patent US20240041902A1, “COMPOSITIONS AND METHODS FOR THE TREATMENT OF UROTHELIAL CANCER” (The State of Israel, Ministry of Agriculture & Rural …, priority 2020, published 2024)

Experiments:
E-cadherin = assay: qRT-PCR of E-cadherin mRNA in T24 cells; assay type: cell-based, human; conditions: 2 hours treatment, extracts 30, MMC 8 μg/mL
From the text: […] The RNA was reverse transcribed. The expression of each target gene was normalized to the expression of hypoxanthine phosphoribosyltransferase 1 (HPRT1; geneID 3251) mRNA as the 2^−66 ΔCt method that presents the differences ( ) in the threshold cycle (Ct) between the target gene and the HPRT1 gene. ΔCt=Ct target gene—Ct HPRT1. Experiments were repeated 4 times (4 biological repeats), with two more technical repeats. The primers were as follows:

T24 cells [1] = assay: Apoptosis assay (Annexin V-FITC and PI, FACS); assay type: cell-based, human; conditions: 48 hours
Description: Apoptosis assay and cell cycle analysis—T24 cells were treated with cannabis compounds or with methanol as a vehicle control. Cell cycle was determined at 24 h and apoptosis was determined at 48 h post-treatment. Staining and detection followed manufacturer instructions. Briefly, for the apoptosis assay, the MEBCYTO Apoptosis Kit with Annexin V-FITC and PI (MBL, Enco, 4700) was used. Cells were seeded in culture 6-wells plates, at density of 5×10^5 cells per well in McCoy's 5A (for T24 a cells) or in RPMI (for HTB-9 cells). The following day, media was replaced with new media containing treatment or methanol control. Cells were then incubated for 24 or 48 h at 37° C. in a humidified 5% CO2 95% air atmosphere. Following incubation, cells were harvested and collected separately. Tubes were centrifuged for 2 min at 900 g and cell pellets were resuspended and washed twice with 1 mL of PBS. The cells in each sample were resuspended in 85 μL of Annexin binding buffer. Cells were stained using 10 μL of Annexin V-FITC solution and 5 μL of propidium iodide (PI) working solution followed by 15 min incubation in the dark at room temperature. Then 400 μL of Annexin V binding buffer were added to each tube and flow cytometry was performed using a FORTESA flow cytometer (FACS). Cells were considered to be apoptotic if they were Annexin V+/PI− (early apoptotic) or Annexin V+/PI+ (late apoptotic). Live cells were defined as Annexin V−/PI−, and Annexin V−/PI+ as necrotic.
Cell proliferation assay—XTT assay was carried on T24 and HTB-9 cells. 1×10^4 cells/well were seeded in 96-well plates. […] MMC was used as a positive control. […] Absorbance was recorded by a Synergy 111 hybrid reader photometer (BioTek) at 490 nm with 650 nm of reference wavelength. […] The cell cycle was determined at 24 hours and apoptosis was determined at 48 hours following treatment. […] Then 200 μL of PBS was added to each tube and the cells were analyzed using FACS.

T24 cells [2] = assay: Cell cycle analysis (PI staining, FACS); assay type: cell-based, human; conditions: 24 hours, DQ 30, sCBD 30, MMC 8 μg/mL
Description: For cell cycle analysis, cells were seeded in 6-wells culture plates at a concentration of 5×10^5 cells per well in McCoy (for T24 cells). The following day, media was replaced with new media containing treatments or methanol control. Cells were then incubated for 24 h at 37° C. in a humidified 5% CO2, 95% air atmosphere. Following 24 h of incubation, media was replaced with new media containing treatment or methanol control. Cells from each well were then harvested and collected separately and centrifuged for 2 min at 900 g. The cell pellet was washed once with 1 mL of PBS and fixed with 70% cold ethanol at 4° C. for at least 1 h. The fixed cells were pelleted out and washed twice with 1 mL of PBS. The cell pellet was then stained by re-suspending in 250 μL of PI solution (50 μg/mL) containing RNase A (100 μg/mL) for 30 min in the dark. Following, 200 μL of PBS were added to each tube and cells were analyzed using FACS.
Cell proliferation assay—XTT assay was carried on T24 and HTB-9 cells. 1×10^4 cells/well were seeded in 96-well plates. […] MMC was used as a positive control. XTT reagent (2,3,-bis (2-methoxy-4-nitro-5-sulfophenyl)-5-[(phenylamino)-carbonyl]-2H-tetrazolium inner salt) was added for 2 h at 37° C. in a humidified atmosphere of 5% CO2 to 95% air. Absorbance was recorded by a Synergy 111 hybrid reader photometer (BioTek) at 490 nm with 650 nm of reference wavelength. Cell survival (% r, viability) was estimated using the equation: % cell survival=(A490−A650) of treatment/(A490−A650) of solvent control×100. A490 and A650 are the absorbencies of the XTT colorimetric reaction. […] Apoptosis assay and cell cycle analysis—T24 cells were treated with cannabis compounds or with methanol as vehicle control. The cell cycle was determined at 24 hours and apoptosis was determined at 48 hours following treatment. Staining and detection followed the manufacturer's instructions. […] Then 200 μL of PBS was added to each tube and the cells were analyzed using FACS.

T24 cells [3] = assay: Transwell cell invasion assay; conditions: MMC 4 μg/mL, positive control
From the text: A transwell assay, as described in [35], was used to determine cell invasion (n=3),

N-cadherin = assay: qRT-PCR of N-cadherin mRNA in T24 cells; assay type: cell-based, human; conditions: 2 hours treatment, 2 hours after washout
From the text: […] Cells were then harvested and total RNA was isolated. The RNA was reverse transcribed. The expression of each target gene was normalized to the expression of hypoxanthine phosphoribosyltransferase 1 (HPRT1; geneID 3251) mRNA as the 2^−66 ΔCt method that presents the differences ( ) in the threshold cycle (Ct) between the target gene and the HPRT1 gene. ΔCt=Ct target gene—Ct HPRT1. Experiments were repeated 4 times (4 biological repeats), with two more technical repeats. The primers were as follows:

CO[C@@]12[C@H](COC(N)=O)C3=C(C(=O)C(C)=C(N)C3=O)N1C[C@@H]1N[C@@H]12 [MMC, Mitomycin-C]
E-cadherin expression (E-cadherin; 2 hours after washout): reduced | E-cadherin expression (E-cadherin; 6 hours after washout): significantly induced | cell apoptosis (T24 cells [1]; CBC+THC 17.2+2.8, CBD 15, MMC 8 μg/mL, control 46.2%): 79.6% | cell necrosis (T24 cells [1]; DQ 30, sCBD 30, MMC 8 μg/mL, control 1.69%): 25.13% | G2/M-phase cells (T24 cells [2]): 28.1% | S-phase cells (T24 cells [2]; vehicle control 19.6%): 34.4% | reduction of cell invasion in comparison to control (T24 cells [3]): 43.7±4.8% | N-cadherin expression (N-cadherin): slightly reduced
